Measurements reported in the CheMixHub viscosity set.
Values joined by “and” are separate entries in the source; they are usually repeats but may differ in a detail not shown here. Equal values may be shown once.

Test: xn = mol fraction of the nth substance listed

Oc1ccc(Cl)cc1 + C[N+](C)(C)CCO.[Cl-]
Conditions	viscosity
293.15 K, 101 kPa, x2 = 0.333	170.6 mPa·s
298.15 K, 101 kPa, x2 = 0.333	123.2 mPa·s
298.15 K, 101.33 kPa, x1 = 0.7	180.2 mPa·s
298.15 K, 101.33 kPa, x1 = 0.8	108.2 mPa·s and 77.89 mPa·s and 66.12 mPa·s
298.15 K, 101.33 kPa, x1 = 0.9	61.06 mPa·s
303.15 K, 101 kPa, x2 = 0.333	92.75 mPa·s
308.15 K, 101 kPa, x2 = 0.333	71.68 mPa·s
313.15 K, 101 kPa, x2 = 0.333	55.45 mPa·s
318.15 K, 101 kPa, x2 = 0.333	43.94 mPa·s
323.15 K, 101 kPa, x2 = 0.333	35.45 mPa·s

CNC(C)=O + CCO
303.15 K, 101 kPa
Conditions	viscosity [mPa·s]
x1 = 0.1049	1.108
x1 = 0.2021	1.237
x1 = 0.3699	1.52
x1 = 0.4024	1.584
x1 = 0.5109	1.833
x1 = 0.6023	2.084
x1 = 0.6979	2.402
x1 = 0.7994	2.792
x1 = 0.895	3.236

CCOCCO + c1ccccc1
viscosity [mPa·s], 101 kPa
Conditions	298.15 K	308.15 K
x1 = 0.0585	0.632	0.548
x1 = 0.1533	0.686	0.587
x1 = 0.2518	0.752	0.635
x1 = 0.3637	0.841	0.7
x1 = 0.4521	0.923	0.76
x1 = 0.5048	0.979	0.8
x1 = 0.5525	1.034	0.839
x1 = 0.6521	1.164	0.931
x1 = 0.7508	1.317	1.039
x1 = 0.8521	1.505	1.17
x1 = 0.9547	1.734	1.328

CCOCCO + C1COCCO1
viscosity [mPa·s], 101.33 kPa
Conditions	x1 = 0.1009	x1 = 0.2023	x1 = 0.3051	x1 = 0.4014	x1 = 0.499	x1 = 0.602	x1 = 0.7004	x1 = 0.8031	x1 = 0.8976
298.15 K	1.293	1.299	1.324	1.367	1.424	1.511	1.6	1.733	1.844
303.15 K	1.069	1.066	1.085	1.119	1.162	1.228	1.299	1.4	1.487
308.15 K	0.982	0.992	1	1.028	1.07	1.12	1.183	1.268	1.344

CCOCCO + ClC(Cl)(Cl)Cl
viscosity [mPa·s], 100 kPa
Conditions	x2 = 0.0977	x2 = 0.1959	x2 = 0.2946	x2 = 0.3938	x2 = 0.4935	x2 = 0.5937	x2 = 0.6945	x2 = 0.7958	x2 = 0.8976
298.15 K	1.784	1.657	1.539	1.428	1.325	1.229	1.14	1.056	0.9785
303.15 K	1.572	1.47	1.373	1.283	1.197	1.118	1.043	0.9725	0.9067
308.15 K	1.391	1.308	1.23	1.155	1.085	1.019	0.9566	0.8976	0.8421
313.15 K	1.236	1.168	1.105	1.044	0.9864	0.9318	0.8798	0.8306	0.7838

CC(C)CCO + ClCCCl
viscosity [mPa·s], 101 kPa
Conditions	x1 = 0.1272	x1 = 0.2201	x1 = 0.3264	x1 = 0.4302	x1 = 0.5765	x1 = 0.6639	x1 = 0.8049	x1 = 0.888
303.15 K	0.743	0.797	0.9054	1.029	1.302	1.532	2.081	2.51
313.15 K	0.6478	0.6865	0.7649	0.8579	1.065	1.23	1.619	1.91
323.15 K	0.5786	0.603	0.665	0.7365	0.8917	1.015	1.309	1.507

CNC(C)=O + O
viscosity [mPa·s]
Conditions	303.18 K	308.15 K	313.15 K	318.15 K
101 kPa, x2 = 0.0402	3.71	–	–	–
101 kPa, x2 = 0.1032	3.81	–	–	–
101 kPa, x2 = 0.2124	4.02	–	–	–
101 kPa, x2 = 0.3814	4.33	–	–	–
101 kPa, x2 = 0.455	4.42	–	–	–
101 kPa, x2 = 0.5528	4.37	–	–	–
101 kPa, x2 = 0.7092	3.7	–	–	–
101 kPa, x2 = 0.8121	2.89	–	–	–
101.33 kPa, x1 = 0.0301	–	0.997	0.893	0.812
101.33 kPa, x1 = 0.06	–	1.293	1.137	1.026
101.33 kPa, x1 = 0.1002	–	1.693	1.465	1.301
101.33 kPa, x1 = 0.15	–	2.24	1.902	1.651
101.33 kPa, x1 = 0.1999	–	2.766	2.326	2.001
101.33 kPa, x1 = 0.245	–	3.108	2.626	2.257
101.33 kPa, x1 = 0.3006	–	3.402	2.882	2.483
101.33 kPa, x1 = 0.3502	–	3.597	3.063	2.646
101.33 kPa, x1 = 0.4012	–	3.748	3.198	2.769
101.33 kPa, x1 = 0.4501	–	3.852	3.3	2.859
101.33 kPa, x1 = 0.5	–	3.921	3.37	2.914
101.33 kPa, x1 = 0.5502	–	3.942	3.398	2.938
101.33 kPa, x1 = 0.6018	–	3.906	3.382	2.928
101.33 kPa, x1 = 0.655	–	3.825	3.327	2.894
101.33 kPa, x1 = 0.7019	–	3.765	3.281	2.869
101.33 kPa, x1 = 0.7551	–	3.688	3.226	2.832
101.33 kPa, x1 = 0.807	–	3.606	3.167	2.797
101.33 kPa, x1 = 0.845	–	3.554	3.13	2.768
101.33 kPa, x1 = 0.9015	–	3.495	3.077	2.733
101.33 kPa, x1 = 0.95	–	3.44	3.044	2.703

Cc1cccc(Cl)c1 + Nc1cccc(Cl)c1
viscosity [mPa·s], 100 kPa
Conditions	x2 = 0.0705	x2 = 0.1546	x2 = 0.2565	x2 = 0.3413	x2 = 0.4391	x2 = 0.5101	x2 = 0.6494	x2 = 0.7592	x2 = 0.8887
303.15 K	0.9978	1.301	1.665	1.967	2.313	2.563	3.05	3.431	3.876
308.15 K	0.9306	1.202	1.529	1.8	2.11	2.333	2.769	3.109	3.505
313.15 K	0.8678	1.109	1.398	1.636	1.909	2.106	2.489	2.788	3.137
318.15 K	0.8037	1.014	1.265	1.473	1.71	1.88	2.212	2.471	2.771

CCn1cc[n+](C)c1.[Cl-] + CN(C)C=O
308.15 K, 101 kPa
Conditions	viscosity [mPa·s]
x1 = 0.0524	1.045
x1 = 0.0867	1.355
x1 = 0.1232	1.705
